Measurements as given in patent US20100062441A1, “C-MET MUTATIONS AND USES THEREOF” (priority 2007, published 2010).

Experiments:
SCCHN cell lines [1] = experiment: Viability/growth by MTT and/or Cyquant; type: cell-based, human; conditions: several cell lines
Description: Specific inhibition of c-Met by small molecule inhibitors can also be determined. […] Both SU11274 (1st generation) and Compound X (3rd generation) were used to test for their respective inhibitory effects on SCCHN cell lines.

SCCHN cell lines [2] = experiment: Cell motility and migration; type: cell-based, human
Description: c-Met is known to have a significant role in cell scattering and possibly metastatic spread (Ren et al., Clin Cancer Res, 11, (17), 6190-7 (2005) and Endo, et al., Hum Pathol, 37, (8), 1111-6 (2006)). Here, the effects of c-Met suppression on cell motility and migration as a surrogate marker for metastatic spread was investigated. […] The degree of downstream modulation varied by cell line.

[3] = tested on: c-Met phosphorylation in SCCHN cell lines; experiment: c-Met phosphorylation and downstream signaling after HGF stimulation; type: cell-based, human
[4] = tested on: MM-AN melanoma cells (minimal levels of c-MET); experiment: Cell growth analysis (cell counting); type: cell-based, human
Description: (§1) For measuring the effect of SU11274 on growth of melanoma cells, MM-AN, MU, PM-WK, MM-RU, MM-MC and RPM-EP cells were plated at 6×10^4 cells in 60 mm dishes in MEM with 10% serum. After 24 hrs different concentrations of SU11274 were added and after 96 hrs cells were trypsinized and counted in a cell counter (Beckman Coulter). Each data point was repeated in triplicate.

MM-AN cells = experiment: Apoptosis by propidium iodide FACS (sub G0/G1); type: cell-based, human
Description: MM-AN, MU, PM-WK, MM-RU, MM-MC, MM-LH and RPM-EP melanoma cells were grown in MEM (Cellgro, Hernon, Va.) with 10% FBS (Gemini Bioproducts, Woodland, Calif.). Triplicate melanoma cell cultures were grown in MEM with 10% FBS and treated with a final concentration of 5-10 μM of SU11274 or an equal volume of diluent (DMSO) as a control for 96 hrs. Cells were collected, stained with propidium iodide and analyzed with a Becton Dickinson FACS Scan and Cell Quest software.
SU11274, which is a highly specific inhibitor of c-Met, was tested on the six melanoma cell lines. […] By 96 hrs between 12 to 58% of cells in different melanoma cell lines appeared in the sub G0/G1 region of the FACS profile indicating apoptosis.

MU melanoma cells [5] = experiment: Differentiation of melanoma cells (morphology); type: cell-based, human; conditions: 72 hrs with 5 μM SU11274
Description: (§2) Thus SU11274 could induce a differentiated phenotype in a wide variety of melanoma cells melanized, amelanotic, less and more differentiated melanoma cells.
The effect of si RNA against c-Met was also studied on the proliferation and differentiation of MU melanoma cells. […] SU11274 at 5 μM and 10 μM inhibited the growth of melanoma cells by 72% and 88% respectively. The inhibitory effect of SU11274 was more pronounced than si RNA since SU11274 is a potent and selective inhibitor of c-Met activity and function. […] Similar to SU11274 c-Met Si RNA 12 hrs after transfection induced an increase in MITF (4 fold) and several of the melanocyte differentiation antigens tyrosinase (4-fold), gp-100 (2-fold) and MART-1 (2-fold) which have been targets for immunotherapy. The increase in the level of various differentiation proteins was determined by densiometric anaylsis after treatment with c-Met si RNA.

MM-MC melanoma cells = experiment: Differentiation of melanoma cells (morphology); type: cell-based, human; conditions: 72 hrs with 5 μM SU11274
Description: as §2

MM-RU melanoma cells = experiment: Differentiation of melanoma cells (morphology); type: cell-based, human; conditions: 72 hrs with 5 μM SU11274
Description: as §2

MU melanoma cells [6] = experiment: Proliferation / growth of melanoma cells; type: cell-based; conditions: Homo sapiens
Description: as §1
siRNA against c-Met was obtained from Dharmacon (Lafayette, Colo.). Briefly four pooled SiRNA duplexes were transiently transfected into MU melanoma cells by the Dharmacon protocol utilizing Oligofectamine obtained from Invitrogen (Carlsbad, Calif.). Mock transfection was done in parallel using SignalSilence control SiRNA (Cell Signaling Technology) as negative control. For studies on the effect of Si RNA on differentiation proteins MU melanoma cells were transfected with Si RNA as described above and cell lysates were prepared after 12 hrs and immunoblotting performed as described above.
The effect of si RNA against c-Met was also studied on the proliferation and differentiation of MU melanoma cells. […] SU11274 at 5 μM and 10 μM inhibited the growth of melanoma cells by 72% and 88% respectively. […] The increase in the level of various differentiation proteins was determined by densiometric anaylsis after treatment with c-Met si RNA.

[7] = tested on: reactive oxygen species (ROS) in MU melanoma cells; experiment: Reactive oxygen species measurement by DHE immunofluorescence; type: cell-based, human; conditions: 5 μM SU11274 for 12 hrs; HGF 40 ng/ml
Description: 5×10^4 MU melanoma cells were plated in 35 mm petri dishes. After 24 hrs MU Melanoma cells were kept in serum free media containing 0.5% BSA with and without 5 μM SU11274 for 12 hrs. Cells were treated with 40 ng/ml HGF for 7.5 min, then treated with DHE 10 μM (molecular probes Inc, Eugene, Oreg.) for 30 min, after which they were visualized under a fluorescent Olympus microscope IX81, 20× objective, ND3 and Rhodamine filter sets. Fluorescence was then quantified using Image J and graphed.
The endogenous levels of reactive oxygen species (ROS) was also analyzed in MU melanoma cells with and without HGF treatment using DHE by fluorescence microscopy. DHE is a redox sensitive probe that has widely been used to detect intracellular superoxide anion. The relative levels of ROS were increased in response to HGF by 47%, and SU11274 decreased the ROS response to HGF to 3%.

[8] = tested on: c-Met dependent signaling in MM-MC melanoma cells; experiment: Phosphorylation of c-Met and signaling molecules via HGF, immunoblotting; type: cell-based, human; conditions: MM-MC (c-Met mutation)
Description: (§3) MU and MC cells that expressed c-Met were deprived of growth factors by incubation in serum free medium containing 0.5% BSA for 24 hours with or without SU11274 (5 μM). After treatment with or without SU11274 in serum free medium, cells were stimulated with or without HGF (EMD Biosciences, San Diego, Calif.) at 40 ng/ml for 7.5 minutes at 37° C. After harvesting, the cells were subjected to the standard procedures of immunoblotting. Antibodies specifically against phosphorylated c-Met, and other proteins are as described above.
(§4) The ability of SU11274 to inhibit activation of c-Met was examined by immunoblotting. Treatment with HGF increased the autophosphorylation of c-MET at the activation loop site phospho-epitope [pY1230/1234/1235]. […] HGF binding to c-Met activated its' tyrosine kinase, AKT (S-473) and S-6 kinase (T-421/S424).

[9] = tested on: c-Met dependent signaling in MU melanoma cells; experiment: as above; type: cell-based, human
Description: as §3, §4

With `Cc1[nH]c(/C=C2\C(=O)Nc3ccc(S(=O)(=O)N(C)c4cccc(Cl)c4)cc32)c(C)c1C(=O)N1CCN(C)CC1` [SU11274, (3Z)-N-(3-chlorophenyl)-3-({3,5-dimethyl-4-[(4-methylpiperazin-1-yl)carbonyl]-1H-pyrrol-2-yl}methylene)-N-methyl-2-oxo-2,3-dihydro-1H-indole-5-sulfonamide] the viability/growth (SCCHN cell lines [1]) was “markedly decreased”, the cell motility (SCCHN cell lines [2]) was “marked decrease” and the c-Met phosphorylation ([3]; all cell lines tested, HGF stimulation) was “Marked inhibition”. The “downstream phosphorylation of SHP2, AKT, ERK” value ([3]; degree varied by cell line) was “affected downstream phosphorylation of SHP2, AKT, and to a lesser degree ERK”, the “IC50 of MM-AN relative to cell lines with abundant c-Met” value [4] was 2 fold and the IC50 ([4]; Homo sapiens, MM-AN, 96 hrs) was 5 µM. For the same compound, the apoptosis (MM-AN cells) was “No apoptosis could be detected”, the “change in morphology / differentiated phenotype” value (MU melanoma cells [5]) was “became very dendritic and differentiated” and the “change in morphology / differentiated phenotype” value (MM-MC melanoma cells) was “became bipolar, tripolar or multipolar”. The “change in morphology / differentiated phenotype” value (MM-RU melanoma cells) was “became bipolar, tripolar or multipolar”, the inhibition at 5 µM (MU melanoma cells [6]; 5 μM) was 72% and the inhibition at 10 µM (MU melanoma cells [6]; 10 μM) was 88%. For the same compound, the “ROS response to HGF” value [7] was 3%, the “phosphorylation of c-Met and AKT” value [8] was “inhibited” and the BCLXL level [9] was “downregulated”. For the same compound, the “HGF induced phosphorylation of c-Met, AKT and S6 kinase” value ([9]; 5 μM) was “completely inhibited”, the “autophosphorylation of c-MET at activation loop site [pY1230/1234/1235]” value ([9]; HGF stimulated) was “completely abolished” and the “phosphorylation of c-Met and AKT” value ([9]; MU (no c-Met mutation)) was “inhibited”.
